Results: paper PMC10829846 (Emerging Microbes & Infections, 2023)

What was measured:
EC1864 = assay: Sepsis model; assay type: in vivo, ICR mice; settings: compound oral + meropenem i.v., all 10 mg/kg once daily
[1] = tested on: NDM-1 positive bacteria EC1864; assay: Checkerboard assay with meropenem; assay type: cell-based, Escherichia coli; settings: meropenem alone […]
NDM-1 [2] = molecular target: T1, NDM-1 (Klebsiella pneumoniae, UniProt C7C422); assay: Inhibition of NDM-1 hydrolytic activity, enzymatic assay with meropenem; assay type: biochemical; settings: for Restoration of NDM-1 activity by zinc supplementation: 1-fold or 10-fold concentration of Zn^2+; for Inhibitory mode: Lineweaver-Burk plot
NDM-1 [3] = molecular target: T1, NDM-1; settings: cited from earlier work
[4] = substrate: C[C@@H](O)[C@H]1C(=O)N2C(C(=O)O)=C(S[C@@H]3CN[C@H](C(=O)N(C)C)C3)[C@H](C)[C@H]12; assay: purified protein, by the assay type; assay type: biochemical; settings: other: meropenem as substrate of recombinant NDM-1; pH 7.5

O=[N+]([O-])c1ccc(O)c2ncccc12 [nitroxoline, 5-nitro-8-hydroxyquinoline]
Survival rate of sepsis mice, combination therapy with meropenem (EC1864): did not exhibit a protective effect
MIC value of meropenem with sub-MIC concentration of the compound [1]: 8 µg/mL
Restoration of NDM-1 activity by zinc supplementation (NDM-1 [2]): partially or fully restored
Inhibitory mode (NDM-1 [2]): non-competitive inhibition
Concentration that completely inhibited NDM-1 activity (NDM-1 [3]): 30 µM

O=C(O)CN(CCN(CC(=O)O)CC(=O)O)CC(=O)O [EDTA]
Restoration of NDM-1 activity by zinc supplementation (NDM-1 [2]): partially or fully restored
Inhibitory mode (NDM-1 [2]): non-competitive inhibition

B1: recombinant NDM-1 (Klebsiella pneumoniae) (protein)
chain: MHHHHHHMPGEIRPTIGQQMETGDQRFGDLVFRQLAPNVWQHTSYLDMPGFGAVASNGLIVRDGGRVLVVDTAWTDDQTAQILNWIKQEINLPVALAVVTHAHQDKMGGMDALHAAGIATYANALSNQLAPQEGMVAAQHSLTFAANGWVEPATAPNFGPLKVFYPGPGHTSDNITVGIDGTDIAFGGCLIKDSKAKSLGNLGDADTEHYAASARAFGAAFPKASMIVMSHSAPDSRAAITHTARMADKLR
Km [4]: 54.72 µM
kcat [4]: 11.71 s⁻¹
